Source: publication PMC12380353, “MK-8527 is a novel inhibitor of HIV-1 reverse transcriptase translocation with potential for extended-duration dosing” (PLOS Biology, 2025)
Where two headings read alike, the source gives them in different places.

How the values were obtained:
[1] = test system: HIV-1; assay: Single-cycle antiviral assay in PBMCs; format: cell-based
Description: To evaluate the ability of inhibitors to prevent HIV-1 infection in primary cells, human PBMCs obtained from Biological Specialty Corporation (Colmar, PA, USA) were used to assess antiviral activity. The proviral variants used for these studies were generated by site-directed mutagenesis in a proviral vector derived from NL43 [52] that encodes GFP (pNLG1-P2A-GFP). Virus was produced by transfection in 293T cells.
PBMCs were activated with phytohemagglutinin (PHA) at 5 μg/mL in Roswell Park Memorial Institute (RPMI) 1640 medium containing 10% heat-inactivated fetal bovine serum (FBS) for 2–3 days. Compound plates were prepared by dispensing compounds dissolved in DMSO into 384-well poly-d-lysine-coated plates (0.2 μL per well) using an Echo acoustic dispenser (Labcyte; San Jose, CA, USA). Each compound was tested in a 10-point serial 3-fold dilution (typical final concentrations: 5,000 to 0.1 nM). Controls included no inhibitor (DMSO only) and a combination of 3 antiviral agents, efavirenz, indinavir, and the integrase strand transfer inhibitor, L-002254051, at final concentrations of 4 μM each. PHA-activated human PBMCs were washed and resuspended in RPMI 1640 containing 10% NHS and 30 units per mL of interleukin-2 (IL-2) at 6 × 10^5 cells per mL. PBMCs were added to the compound plates and cultured for 24 h at 37 °C, 5% CO2, and 90% humidity. The appropriate HIV-1 variant was added to the PBMCs and cultured at 37 °C, 5% CO2, and 90% humidity for an additional 24 h.
HIV-1–infected cells were quantified by counting the number of GFP cells in each well using an Acumen eX3 scanner (SPT Labtech; Melbourn, UK).

[2] = biological target: T1, human DNA polymerase α (Homo sapiens, UniProt P09884); assay: Human DNA polymerase α inhibition assay; format: biochemical; details: top concentration 200 µM
T1 sequence (P09884 1-1462): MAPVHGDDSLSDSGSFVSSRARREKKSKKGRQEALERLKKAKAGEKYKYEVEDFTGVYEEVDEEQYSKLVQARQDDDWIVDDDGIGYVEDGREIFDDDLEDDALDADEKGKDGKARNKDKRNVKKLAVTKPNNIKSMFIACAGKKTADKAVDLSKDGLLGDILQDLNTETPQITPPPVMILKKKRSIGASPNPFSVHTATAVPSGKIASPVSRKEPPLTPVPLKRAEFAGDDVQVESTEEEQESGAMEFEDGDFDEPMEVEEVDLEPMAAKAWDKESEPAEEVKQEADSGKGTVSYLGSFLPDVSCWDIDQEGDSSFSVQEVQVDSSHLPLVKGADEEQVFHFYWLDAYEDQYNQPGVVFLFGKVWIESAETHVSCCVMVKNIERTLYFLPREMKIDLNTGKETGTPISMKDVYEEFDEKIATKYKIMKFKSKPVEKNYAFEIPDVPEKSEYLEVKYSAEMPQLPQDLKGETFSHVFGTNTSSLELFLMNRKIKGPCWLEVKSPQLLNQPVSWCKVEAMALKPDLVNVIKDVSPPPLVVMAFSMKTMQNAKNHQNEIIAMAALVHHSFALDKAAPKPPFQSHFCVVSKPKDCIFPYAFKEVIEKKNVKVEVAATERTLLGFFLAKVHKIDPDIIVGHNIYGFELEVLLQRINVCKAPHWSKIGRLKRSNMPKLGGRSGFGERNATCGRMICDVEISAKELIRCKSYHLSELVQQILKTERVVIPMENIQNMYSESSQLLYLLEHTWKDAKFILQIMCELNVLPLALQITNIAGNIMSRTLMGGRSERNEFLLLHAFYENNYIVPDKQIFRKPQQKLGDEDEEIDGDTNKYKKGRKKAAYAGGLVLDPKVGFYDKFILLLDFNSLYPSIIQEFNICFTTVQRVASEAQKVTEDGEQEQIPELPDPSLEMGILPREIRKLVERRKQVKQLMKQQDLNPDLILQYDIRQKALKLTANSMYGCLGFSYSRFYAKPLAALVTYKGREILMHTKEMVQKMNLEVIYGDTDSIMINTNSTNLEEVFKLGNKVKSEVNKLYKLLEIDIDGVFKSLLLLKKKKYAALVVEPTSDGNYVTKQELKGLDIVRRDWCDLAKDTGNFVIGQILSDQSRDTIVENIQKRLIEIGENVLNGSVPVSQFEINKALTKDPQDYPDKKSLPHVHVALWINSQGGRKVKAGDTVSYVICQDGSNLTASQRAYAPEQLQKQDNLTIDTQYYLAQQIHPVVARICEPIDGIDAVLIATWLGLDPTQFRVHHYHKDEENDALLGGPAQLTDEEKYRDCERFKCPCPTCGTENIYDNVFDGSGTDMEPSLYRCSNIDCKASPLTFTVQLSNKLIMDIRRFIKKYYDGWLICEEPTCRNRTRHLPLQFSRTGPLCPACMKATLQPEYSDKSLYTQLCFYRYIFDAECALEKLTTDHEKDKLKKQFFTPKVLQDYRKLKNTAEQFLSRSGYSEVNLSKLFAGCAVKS
Description: (§1) The activities of human DNA polymerases α, β, and γ were measured in radiolabeled nucleotide incorporation assays. TP was prepared as a 10-point titration with 3-fold serial dilution in water. Reaction buffers for the DNA polymerase α and β assays both contained 20 mM Tris pH 7.5, 10 mM MgCl2, 50 μM EDTA, 200 μg/mL bovine serum albumin (BSA), 2 mM dithiothreitol (DTT), 1.6 μM each of dNTP (dATP, dCTP, dGTP, and dTTP), 20 μCi/mL [α33P]dATP, 0.1 mg/mL gapped activated fish sperm DNA template, test compound, and 0.005 U/μL DNA polymerase α or 0.0025 U/μL DNA polymerase β. The reaction buffer for DNA polymerase γ contained 20 mM Tris pH 8, 10 mM MgCl2, 50 mM KCl, 100 μg/mL BSA, 2 mM β-mercaptoethanol, 10 μM of each dNTP (dATP, dCTP, dGTP, and dTTP), 20 μCi/mL [α33P]dATP, 0.04 mg/mL gapped activated fish sperm DNA template, test compound, and 0.0003 μg/μL DNA polymerase γ. The 50-μL reactions were incubated at room temperature for 30 min (for β and γ) or 90 min (for α) before terminating with the addition of 50 μL 500 mM EDTA. The reaction mixtures were transferred to a Millipore DE81 filter plate (EMD Millipore; Hayward, CA), washed with 0.5 M sodium phosphate pH 7.0, and dried. After addition of 40 μL scintillant to each well, the incorporation of labeled dATP was determined with a microplate counter (TopCount NXT HTS; PerkinElmer, Shelton, CA, USA).

[3] = biological target: human DNA polymerases α and β and human mitochondrial DNA polymerase γ; assay: Human DNA polymerase inhibition assays (summary for α, β, γ); format: biochemical; details: read-out: IC50 values against human DNA polymerases tested
Description: as §1

| Compound | PBMC IC50 ([1]; HIV-1, single-cycle assay, human PBMCs, 10% NHS) | IC50 ([1]; Human immunodeficiency virus 1, PBMC, read-out: PBMC IC50, HIV-1, single-cycle assay, human PBMCs, 10% NHS) | IC50 ([1]; read-out: PBMC IC50, HIV-1, single-cycle assay, human PBMCs, 10% NHS, listed as MK-8527) | IC50 [2] | IC50 [3] |
| --- | --- | --- | --- | --- | --- |
| C#C[C@]1(CO)O[C@@H](n2ccc3c(N)nc(Cl)nc32)C[C@@H]1O [Compound 12, (2R,3S,5R)-5-(4-amino-2-chloro-7H-pyrrolo[2,3-d]pyrimidin-7-yl)-2-ethynyl-2-(hydroxymethyl)tetrahydrofuran-3-ol] | subnanomolar potency | 0.2 nM | 0.21 ± 0.09 nM |  |  |
| C#C[C@]1(COP(=O)(O)OP(=O)(O)OP(=O)(O)O)O[C@@H](n2ccc3c(N)nc(Cl)nc32)C[C@@H]1O [MK-8527-TP] |  |  |  | 95000 nM | ≥ 95000 nM |
